ChEMBL document CHEMBL1130883, “Modeling, synthesis and biological activity of novel antifungal agents (1)” (Bioorg Med Chem Lett, 1998)
In brackets after ≈: the same amount, converted by molar mass.

Experiments:
Cryptococcus neoformans = assay: Compound was tested in vitro for antifungal activity against Cryptococcus neoformans (CY1057)
Candida albicans [1] = assay: Compound was tested in vitro for antifungal activity against Candida albicans (CY3003); assay type: functional
Aspergillus fumigatus [2] = assay: Compound was tested in vitro for antifungal activity against Aspergillus fumigatus (CF1004); assay type: functional
[3] = target: Lanosterol 14-alpha demethylase (Candida albicans) (UniProt P10613); assay: In vitro inhibition of cytochrome P450 lanosterol C14 demethylase in Candida albicans CY1005
Aspergillus fumigatus [4] = assay: Compound was tested in vitro for antifungal activity against Aspergillus fumigatus (CF1004) in experiment 2; assay type: functional
Candida albicans [5] = assay: Compound was tested in vitro for antifungal activity against Cryptococcus neoformans (CY1057) in experiment 2; assay type: functional

Sequence of Lanosterol 14-alpha demethylase (Candida albicans) (P10613 whole entry, looked up): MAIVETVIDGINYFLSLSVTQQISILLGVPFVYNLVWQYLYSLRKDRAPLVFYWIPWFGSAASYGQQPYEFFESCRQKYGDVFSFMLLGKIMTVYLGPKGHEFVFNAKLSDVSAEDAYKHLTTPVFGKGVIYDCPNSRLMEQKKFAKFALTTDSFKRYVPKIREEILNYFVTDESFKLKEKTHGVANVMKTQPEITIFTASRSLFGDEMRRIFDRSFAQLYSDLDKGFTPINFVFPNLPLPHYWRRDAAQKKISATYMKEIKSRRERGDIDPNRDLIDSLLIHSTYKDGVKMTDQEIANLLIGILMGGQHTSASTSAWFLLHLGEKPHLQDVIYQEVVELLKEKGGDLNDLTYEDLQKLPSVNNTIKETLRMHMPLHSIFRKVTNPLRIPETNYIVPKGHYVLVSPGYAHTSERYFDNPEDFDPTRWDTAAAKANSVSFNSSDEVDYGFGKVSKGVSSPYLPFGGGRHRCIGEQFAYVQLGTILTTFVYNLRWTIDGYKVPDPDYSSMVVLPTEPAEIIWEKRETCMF

SMILES	IC80 (Cryptococcus neoformans) [µg/mL]	IC80 (Candida albicans [1]) [µg/mL]	IC80 (Aspergillus fumigatus [2]) [µg/mL]	IC50 [3] [µg/mL]	IC80 (Aspergillus fumigatus [4]) [µg/mL]	IC80 (Candida albicans [5]) [µg/mL]
CCc1ccc(CC[C@@H]2CCC(C)(C)/C(=N/OC)[C@H]2Cn2cncn2)cc1	0.48 (≈ 1.3 µM)	0.024 (≈ 0.0651 µM)	0.064 (≈ 0.174 µM)	–	–	–
CO/N=C1\[C@@H](Cn2cncn2)[C@H](COc2ccc(OC(F)(F)F)cc2)CCC1(C)C	7.6 (≈ 17.8 µM)	0.12 (≈ 0.281 µM)	0.4 (≈ 0.938 µM)	–	–	–
CC1(C)CC[C@@H](COc2ccc(OC(F)(F)F)cc2)[C@H](Cn2cncn2)/C1=N\O	> 200	0.35 (≈ 0.849 µM)	0.17 (≈ 0.412 µM)	–	–	–
COC1[C@@H](Cn2cncn2)[C@H](COc2ccc(OC(F)(F)F)cc2)CCC1(C)C (stereo partly specified)	0.51 (≈ 1.23 µM)	0.18 (≈ 0.435 µM)	56 (≈ 135 µM)	–	–	–
CC1(C)CC[C@@H](COc2ccc(OC(F)(F)F)cc2)[C@H](Cn2cncn2)C1OCCO (stereo partly specified)	5.2 (≈ 11.7 µM)	0.39 (≈ 0.879 µM)	110 (≈ 248 µM)	–	–	–
CC(=O)c1ccc(CC[C@@H]2CCC(C)(C)/C(=N/O)[C@H]2Cn2cncn2)cc1	> 200	> 200	60 (≈ 163 µM)	–	–	–
CCc1ccc(CC[C@@H]2CCC(C)(C)C(OCCO)[C@H]2Cn2cncn2)cc1 (stereo partly specified)	0.36 (≈ 0.934 µM)	0.00086 (≈ 0.00223 µM)	> 200	–	–	–
CCc1ccc(CC[C@@H]2CCC(C)(C)/C(=N/O)[C@H]2Cn2cncn2)cc1	130 (≈ 367 µM)	0.023 (≈ 0.0649 µM)	0.0011 (≈ 0.0031 µM)	–	–	–
CC(O)c1ccc(CC[C@@H]2CCC(C)(C)/C(=N/O)[C@H]2Cn2cncn2)cc1 (stereo partly specified)	> 200	> 200	21 (≈ 56.7 µM)	–	–	–
CCc1ccc(CC[C@@H]2CCC(C)(C)[C@H](OC)[C@H]2Cn2cncn2)cc1	0.74 (≈ 2.08 µM)	0.0042 (≈ 0.0118 µM)	> 200	0.01 (≈ 0.0281 µM)	–	–
OC(Cn1cncn1)(Cn1cncn1)c1ccc(F)cc1F [FLUCONAZOLE]	6.2 (≈ 20.2 µM)	1.3 (≈ 4.24 µM)	150 (≈ 490 µM)	–	> 200	2.6 (≈ 8.49 µM)
